Experimental data reported in ChEMBL document CHEMBL4342421, “Current scenario of tetrazole hybrids for antibacterial activity” (Eur J Med Chem, 2019).
≈ marks a conversion by molar mass, not a printed value.

Experiments:
Escherichia coli [1] = experiment: Antimicrobial activity against Escherichia coli assessed as zone of inhibition at 50 ug/ml; assay type: functional; conditions: read-out: IZ
Staphylococcus aureus [2] = experiment: Antimicrobial activity against Staphylococcus aureus assessed as zone of inhibition at 50 ug/ml; assay type: functional; conditions: read-out: IZ
Candida albicans [3] = experiment: Antifungal activity against Candida albicans assessed as zone of inhibition at 50 ug/ml; assay type: functional; conditions: read-out: IZ
Pseudomonas aeruginosa [4] = experiment: Antimicrobial activity against Pseudomonas aeruginosa assessed as zone of inhibition at 50 ug/ml; assay type: functional; conditions: read-out: IZ
Bacillus subtilis [5] = experiment: Antimicrobial activity against Bacillus subtilis assessed as zone of inhibition at 50 ug/ml; assay type: functional; conditions: read-out: IZ
Aspergillus fumigatus = experiment: Antifungal activity against Aspergillus fumigatus assessed as zone of inhibition at 50 ug/ml; assay type: functional; conditions: read-out: IZ
Escherichia coli [6] = experiment: Antimicrobial activity against Escherichia coli; assay type: functional
Staphylococcus aureus [7] = experiment: Antimicrobial activity against Staphylococcus aureus; assay type: functional
Bacillus subtilis [8] = experiment: Antimicrobial activity against Bacillus subtilis; assay type: functional
Salmonella typhimurium = experiment: Antimicrobial activity against Salmonella typhimurium; assay type: functional, Salmonella enterica subsp. enterica serovar Typhimurium; conditions: Salmonella enterica
Candida albicans [9] = experiment: Antifungal activity against Candida albicans; assay type: functional
Pseudomonas aeruginosa [10] = experiment: Antimicrobial activity against Pseudomonas aeruginosa; assay type: functional
Bacillus cereus [11] = experiment: Antimicrobial activity against Bacillus cereus; assay type: functional
Staphylococcus aureus [12] = experiment: Antimicrobial activity against Staphylococcus aureus assessed as zone of inhibition at 250 ug/ml; assay type: functional; conditions: read-out: IZ
Bacillus cereus [13] = experiment: Antimicrobial activity against Bacillus cereus assessed as zone of inhibition at 250 ug/ml; assay type: functional; conditions: read-out: IZ
Escherichia coli [14] = experiment: Antimicrobial activity against Escherichia coli assessed as zone of inhibition at 250 ug/ml; assay type: functional; conditions: read-out: IZ
Pseudomonas aeruginosa [15] = experiment: Antimicrobial activity against Pseudomonas aeruginosa assessed as zone of inhibition at 250 ug/ml; assay type: functional; conditions: read-out: IZ
Candida albicans [16] = experiment: Antifungal activity against Candida albicans assessed as zone of inhibition at 250 ug/ml; assay type: functional; conditions: read-out: IZ
Aspergillus niger [17] = experiment: Antifungal activity against Aspergillus niger assessed as zone of inhibition at 250 ug/ml; assay type: functional; conditions: read-out: IZ
Aspergillus niger [18] = experiment: Antifungal activity against Aspergillus niger; assay type: functional

SMILES	zone of inhibition at 50 µg/mL (Escherichia coli [1]) [mm]	zone of inhibition at 50 µg/mL (Staphylococcus aureus [2]) [mm]	zone of inhibition at 50 µg/mL (Candida albicans [3]) [mm]	zone of inhibition at 50 µg/mL (Pseudomonas aeruginosa [4]) [mm]	zone of inhibition at 50 µg/mL (Bacillus subtilis [5]) [mm]	zone of inhibition at 50 µg/mL (Aspergillus fumigatus) [mm]	also measured
COc1ccc(-n2nnnc2-c2cccnc2)cc1	10 to 22	10 to 22	10 to 22	10 to 22	10 to 22	10 to 22	
c1ccc(-c2nnnn2-c2ccccn2)cc1	10 to 24	10 to 24	10 to 24	10 to 24	10 to 24	10 to 24	
Cc1ccc(-c2nnnn2-c2ccccn2)cc1	10 to 24	10 to 24	10 to 24	10 to 24	10 to 24	10 to 24	
Clc1cccc(-n2nnnc2-c2cccnc2)c1Cl	10 to 22	10 to 22	10 to 22	10 to 22	10 to 22	10 to 22	
Clc1ccccc1-c1nnnn1-c1ccccn1	10 to 24	10 to 24	10 to 24	10 to 24	10 to 24	10 to 24	
O=[N+]([O-])c1cc(-c2nnnn2-c2ccccn2)cc([N+](=O)[O-])c1	10 to 24	10 to 24	10 to 24	10 to 24	10 to 24	10 to 24	
CCCCCC(O)C(C(CCCCCCC(=O)OCCn1c([N+](=O)[O-])cnc1C)n1nnnc1C)n1nnnc1C (stereo unspecified)							MIC (Escherichia coli [6]): 26 µg/mL (≈ 45.2 µM); MIC (Staphylococcus aureus [7]): 72 µg/mL (≈ 125 µM); MIC (Bacillus subtilis [8]): 24 to 76 µg/mL (≈ 41.7 to 132 µM); MIC (Salmonella typhimurium): 34 µg/mL (≈ 59.1 µM); MIC (Candida albicans [9]): 124 µg/mL (≈ 215 µM)
c1ccc(-c2nnnn2-c2nc3ccccc3s2)cc1							MIC (Escherichia coli [6]): 50 to 100 µg/mL (≈ 179 to 358 µM); MIC (Pseudomonas aeruginosa [10]): 50 to 100 µg/mL (≈ 179 to 358 µM); MIC (Staphylococcus aureus [7]): 50 to 100 µg/mL (≈ 179 to 358 µM); MIC (Bacillus cereus [11]): 50 to 100 µg/mL (≈ 179 to 358 µM); MIC (Candida albicans [9]): 50 to 100 µg/mL (≈ 179 to 358 µM); zone of inhibition at 250 µg/mL (Staphylococcus aureus [12]): 16 to 26 mm; zone of inhibition at 250 µg/mL (Bacillus cereus [13]): 16 to 26 mm; zone of inhibition at 250 µg/mL (Escherichia coli [14]): 16 to 26 mm; zone of inhibition at 250 µg/mL (Pseudomonas aeruginosa [15]): 16 to 26 mm; zone of inhibition at 250 µg/mL (Candida albicans [16]): 16 to 26 mm; zone of inhibition at 250 µg/mL (Aspergillus niger [17]): 16 to 26 mm; MIC (Aspergillus niger [18]): 50 to 100 µg/mL (≈ 179 to 358 µM)
Brc1ccc(-n2nnnc2-c2cccnc2)cc1	10 to 22	10 to 22	10 to 22	10 to 22	10 to 22	10 to 22	
Brc1cccc(-c2nnnn2-c2ccccn2)c1	10 to 24	10 to 24	10 to 24	10 to 24	10 to 24	10 to 24	
c1ccc(-n2nnnc2-c2cccnc2)cc1	10 to 22	10 to 22	10 to 22	10 to 22	10 to 22	10 to 22	
Clc1ccc(-c2nnnn2-c2ccccn2)cc1	10 to 24	10 to 24	10 to 24	10 to 24	10 to 24	10 to 24	
COc1ccc(-c2nnnn2-c2ccccn2)cc1	16 to 24	16 to 24	16 to 24	16 to 24	16 to 24	16 to 24	
O=[N+]([O-])c1ccc(-n2nnnc2-c2cccnc2)cc1	10 to 22	10 to 22	10 to 22	10 to 22	10 to 22	10 to 22	
Cc1ccc(-n2nnnc2-c2cccnc2)cc1	10 to 22	10 to 22	10 to 22	10 to 22	10 to 22	10 to 22	
Clc1ccc(-n2nnnc2-c2cccnc2)cc1	10 to 22	10 to 22	10 to 22	10 to 22	10 to 22	10 to 22	
